Measured values from BindingDB's records for doi:10.1016/j.bmcl.2003.09.069 (Sugen, 2003).
pIC50: −log10 of the molar value.

assay: Inhibitory activity against cellular Src protein tyrosine kinase using the actin ring assay

pIC50 | SMILES
6.00 | CNS(=O)(=O)c1ccc2c(c1)/C(=C/c1[nH]c3c(c1CN1CCOCC1)CCCC3)C(=O)N2 [3-[1-(3-Morpholin-4-ylmethyl-4,5,6,7-tetrahydro-1H-indol-2-yl)-meth-(Z)-ylidene]-2-oxo-2,3-dihydro-1H-indole-5-sulfonic acid methylamide]
6.05 | CNS(=O)(=O)c1ccc2c(c1)/C(=C/c1[nH]c3c(c1CCCN1CCC(O)CC1)CCCC3)C(=O)N2 [3-[1-{3-[3-(4-Hydroxy-piperidin-1-yl)-propyl]-4,5,6,7-tetrahydro-1H-indol-2-yl}-meth-(Z)-ylidene]-2-oxo-2,3-dihydro-1H-indole-5-sulfonic acid methylamide]
< 5.00 | CNS(=O)(=O)c1ccc2c(c1)/C(=C/c1[nH]c3c(c1CCCN1CCN(CC(=O)O)CC1)CCCC3)C(=O)N2 [[4-(3-{2-[5-Methylsulfamoyl-2-oxo-1,2-dihydro-indol-(3Z)-ylidenemethyl]-4,5,6,7-tetrahydro-1H-indol-3-yl}-propyl)-piperazin-1-yl]-acetic acid]
5.00 | CCS(=O)(=O)c1ccc2c(c1)/C(=C/c1[nH]c3c(c1CCCN1CCN(CC(=O)O)CC1)CCCC3)C(=O)N2 [[4-(3-{2-[5-Ethanesulfonyl-2-oxo-1,2-dihydro-indol-(3Z)-ylidenemethyl]-4,5,6,7-tetrahydro-1H-indol-3-yl}-propyl)-piperazin-1-yl]-acetic acid]
5.30 | CCS(=O)(=O)c1ccc2c(c1)/C(=C/c1[nH]c3c(c1CN1CCOCC1)CCCC3)C(=O)N2 [5-Ethanesulfonyl-3-[1-(3-morpholin-4-ylmethyl-4,5,6,7-tetrahydro-1H-indol-2-yl)-meth-(Z)-ylidene]-1,3-dihydro-indol-2-one]
7.00 | CNS(=O)(=O)c1ccc2c(c1)/C(=C/c1[nH]c3c(c1CCCN1CCN(C)CC1)CCCC3)C(=O)N2 [3-[1-{3-[3-(4-Methyl-piperazin-1-yl)-propyl]-4,5,6,7-tetrahydro-1H-indol-2-yl}-meth-(Z)-ylidene]-2-oxo-2,3-dihydro-1H-indole-5-sulfonic acid methylamide]
6.10 | CCS(=O)(=O)c1ccc2c(c1)/C(=C/c1[nH]c3c(c1CCCN1CCC(O)CC1)CCCC3)C(=O)N2 [5-Ethanesulfonyl-3-[1-{3-[3-(4-hydroxy-piperidin-1-yl)-propyl]-4,5,6,7-tetrahydro-1H-indol-2-yl}-meth-(Z)-ylidene]-1,3-dihydro-indol-2-one]
7.00 | CNS(=O)(=O)c1ccc2c(c1)/C(=C/c1[nH]c3c(c1CCCN1CCOCC1)CCCC3)C(=O)N2 [3-[1-[3-(3-Morpholin-4-yl-propyl)-4,5,6,7-tetrahydro-1H-indol-2-yl]-meth-(Z)-ylidene]-2-oxo-2,3-dihydro-1H-indole-5-sulfonic acid methylamide]
< 5.00 | CNS(=O)(=O)c1ccc2c(c1)/C(=C/c1[nH]c3c(c1CCC(N)=O)CCCC3)C(=O)N2 [3-{2-[5-Methylsulfamoyl-2-oxo-1,2-dihydro-indol-(3Z)-ylidenemethyl]-4,5,6,7-tetrahydro-1H-indol-3-yl}-propionamide]
< 5.00 | CCS(=O)(=O)c1ccc2c(c1)/C(=C/c1[nH]c3c(c1CCC(N)=O)CCCC3)C(=O)N2 [3-{2-[5-Ethanesulfonyl-2-oxo-1,2-dihydro-indol-(3Z)-ylidenemethyl]-4,5,6,7-tetrahydro-1H-indol-3-yl}-propionamide]
6.05 | CCOC(=O)CN1CCN(CCCc2c(/C=C3\C(=O)Nc4ccc(S(=O)(=O)NC)cc43)[nH]c3c2CCCC3)CC1 [[4-(3-{2-[5-Methylsulfamoyl-2-oxo-1,2-dihydro-indol-(3Z)-ylidenemethyl]-4,5,6,7-tetrahydro-1H-indol-3-yl}-propyl)-piperazin-1-yl]-acetic acid ethyl ester]
6.30 | CCS(=O)(=O)c1ccc2c(c1)/C(=C/c1[nH]c3c(c1CCCN(C)C)CCCC3)C(=O)N2 [3-[1-[3-(3-Dimethylamino-propyl)-4,5,6,7-tetrahydro-1H-indol-2-yl]-meth-(Z)-ylidene]-5-ethanesulfonyl-1,3-dihydro-indol-2-one]
5.77 | CCS(=O)(=O)c1ccc2c(c1)/C(=C/c1[nH]c3c(c1CCCN1CCN(CCO)CC1)CCCC3)C(=O)N2 [5-Ethanesulfonyl-3-[1-(3-{3-[4-(2-hydroxy-ethyl)-piperazin-1-yl]-propyl}-4,5,6,7-tetrahydro-1H-indol-2-yl)-meth-(Z)-ylidene]-1,3-dihydro-indol-2-one]
5.52 | CNS(=O)(=O)c1ccc2c(c1)/C(=C/c1[nH]c3c(c1CCCN1CCN(CCO)CC1)CCCC3)C(=O)N2 [3-[1-(3-{3-[4-(2-Hydroxy-ethyl)-piperazin-1-yl]-propyl}-4,5,6,7-tetrahydro-1H-indol-2-yl)-meth-(Z)-ylidene]-2-oxo-2,3-dihydro-1H-indole-5-sulfonic acid methylamide]
